The nature of experiment [1]: Compound was tested for the inhibition of [3H]- [D-Pen2, D-Pen5]-enkephalin (DPDPE) binding to Opioid receptor delta 1 in guinea pig brain homogenates.
A short description of experiment [2]: Compound was tested for the inhibition of [3H]- [D-Pen2, D-Pen5]-enkephalin (DPDPE) binding to opioid receptor delta in guinea pig brain homogenates.
Experiment [3] is described as follows: Compound was tested for the inhibition of [3H]- [D-Pen2, D-Pen5]-enkephalin (DPDPE) binding to Opioid receptor delta 1 in guinea pig brain homogenates. The source holds these as a separate data set.

Positions of bridges follow the written chain, without caps; N, C: chain ends. Non-standard residues stand in square brackets, D forms with d. Residues, ends and D or L forms follow the SMILES beside them. Phe(4-NO2) = N[C@@H](Cc1ccc([N+](=O)[O-])cc1)C(=O)O; Phe(4-tBu) = CC(C)(C)c1ccc(C[C@H](N)C(=O)O)cc1; Phe(4-Cl) = N[C@@H](Cc1ccc(Cl)cc1)C(=O)O; Phe(3-F) = N[C@@H](Cc1cccc(F)c1)C(=O)O; Phe(4-F) = N[C@@H](Cc1ccc(F)cc1)C(=O)O; Phe(4-Me) = Cc1ccc(C[C@H](N)C(=O)O)cc1; Phe(2-F) = N[C@@H](Cc1ccccc1F)C(=O)O; mTyr = N[C@@H](Cc1cccc(O)c1)C(=O)O; Pen = CC(C)(S)[C@H](N)C(=O)O

For orientation: Ki means the equilibrium dissociation constant of an inhibitor or competing ligand from its target. A low value points to a stronger hold on the target. In the case of `CC1(C)SSC[C@H](NC(=O)[C@@H](N)Cc2ccc(O)cc2)C(=O)N[C@@H](Cc2ccc(Cl)cc2)C(=O)N[C@@H]1C(=O)O` (H-YC[Phe(4-Cl)][Pen]-OH; disulfide 2-4), in experiment [1], the affinity corresponds to a Ki of 0.98 nM.
Same read-out and setting: the same measure for `CC1(C)SSC[C@H](NC(=O)[C@@H](N)Cc2ccc(O)cc2)C(=O)N[C@@H](Cc2ccccc2F)C(=O)N[C@@H]1C(=O)O` (H-YC[Phe(2-F)][Pen]-OH; disulfide 2-4): 3.3 nM.
On to `CC1(C)SSC[C@H](NC(=O)[C@@H](N)Cc2ccc(O)cc2)C(=O)N[C@@H](Cc2cccc(F)c2)C(=O)N[C@@H]1C(=O)O` (H-YC[Phe(3-F)][Pen]-OH; disulfide 2-4), for which affinity in experiment [1] was put at a Ki of 2.9 nM.
With `CC1(C)SSC[C@H](NC(=O)[C@@H](N)Cc2ccc(O)cc2)C(=O)N[C@@H](Cc2cccc(O)c2)C(=O)N[C@@H]1C(=O)O` (H-YC[mTyr][Pen]-OH; disulfide 2-4), the inhibition constant (Ki) in experiment [2] stood at 9.3 nM; in experiment [3], 148 nM.
`Cc1ccc(C[C@@H]2NC(=O)[C@@H](NC(=O)[C@@H](N)Cc3ccc(O)cc3)CSSC(C)(C)[C@@H](C(=O)O)NC2=O)cc1` (H-YC[Phe(4-Me)][Pen]-OH; disulfide 2-4): the Ki in experiment [1] was 5.4 nM.
`CC1(C)SSC[C@H](NC(=O)[C@@H](N)Cc2ccc(O)cc2)C(=O)N[C@@H](Cc2ccc([N+](=O)[O-])cc2)C(=O)N[C@@H]1C(=O)O` (H-YC[Phe(4-NO2)][Pen]-OH; disulfide 2-4) had an inhibition constant Ki in experiment [3] of 1.7 nM.
On the same count and under the same terms, for `CC1(C)SSC[C@H](NC(=O)[C@@H](N)Cc2ccc(O)cc2)C(=O)N[C@@H](Cc2ccc(O)cc2)C(=O)N[C@@H]1C(=O)O` (H-YCY[Pen]-OH; disulfide 2-4) the value was 26 nM; for `CC1(C)SSC[C@H](NC(=O)[C@@H](N)Cc2ccc(O)cc2)C(=O)N[C@@H](Cc2ccc(F)cc2)C(=O)N[C@@H]1C(=O)O` (H-YC[Phe(4-F)][Pen]-OH; disulfide 2-4), 1.1 nM.
Consider `CC(C)(C)c1ccc(C[C@@H]2NC(=O)[C@@H](NC(=O)[C@@H](N)Cc3ccc(O)cc3)CSSC(C)(C)[C@@H](C(=O)O)NC2=O)cc1` (H-YC[Phe(4-tBu)][Pen]-OH; disulfide 2-4), for which the inhibition constant (Ki) in experiment [2] came out at 37 nM; in experiment [3] it was 648 nM.

Source of the values: BindingDB's records for doi:10.1021/jm00087a006 (University of Michigan, 1992).
